System: patient-derived GSCs
Test: Xenogeneic (PDX) NSG mouse model of GBM
Format: in vivo
Description: To test this prediction, a PDX mouse model of patient-derived GSC was used, in which, ffLuc+ patient-derived GSCs (0.5×10^6) were stereotactically implanted on day 0 through a guide-screw into the right forebrain of NOD/SCID/IL2Rγc null mice (n=4-5 per group). After 7 days, the mice were treated intratumorally with 2.0×10^6 human NK cells every 7 days for 11 weeks (FIG. 5A) with either galunisertib to block the TGF-β signaling or cilengitide to block the integrin pathway. Galunisertib was administered five times a week by oral gavage and cilengitide three times a week by intraperitoneal injection. Animals implanted with tumor that were either untreated or received NK cells alone, galunisertib alone or cilengitide alone served as controls.
To assess the anti-tumor effect of NK cells against GSCs in vivo, a NOD/SCID IL-2R7null (NSG) human xenograft model (Jackson Laboratories, Bar Harbor, Me.) was used. Intracranial implantation of GSCs into male mice was performed as previously described^55. A total of 60 mice were used. 0.5×10^5 GSCs were implanted intracranially into the right frontal lobe of 5 week old NSG mice using a guide-screw system implanted within the skull. To increase uniformity of xenograft uptake and growth, cells were injected into 10 animals simultaneously using a multiport Microinfusion Syringe Pump (Harvard Apparatus, Holliston, Mass.). Animals were anesthetized with xylazine/ketamine during the procedure. For in vivo bioluminescent imaging, GSCs were engineered to express luciferase by lentivirus transduction. Kinetics of tumor growth was monitored using weekly bioluminescence imaging (BLI; Xenogen-IVIS 200 Imaging system; Caliper, Waltham, Mass.). Signal quantitation in photons/second (p/s) was performed by determining the photon flux rate within standardized regions of interest (ROI) using Living Image software (Caliper). […] expanded donor peripheral blood NK cells^56 were injected intracranially via the guide-screw at day 7 post tumor implantation, and then every 7 days for 11 weeks. Mice were treated with either cilengitide or galunisertib (both from MCE Med Chem Express, Monmouth Junction, NJ) in the presence or absence of intracranial NK cell injection. Cilengitide was administered intraperitoneally 3 times a week starting at day 1 (250 μg/100 μl PBS) while galunisertib was administered orally (75 mg/kg) by gavage 5 days a week starting at day 1 (see FIG. 5A). […]
Brain tissue specimens from untreated control mice, mice treated with either NK cells alone, cilengitide alone, galunisertib alone or with combination therapy of NK+ cilengitide or NK+ galunisertib were collected. […] Sections lacking tumor were also evaluated for evidence of meningoencephalitis using a Leica DM 2500 light microscope by a board-certified veterinary pathologist. […]

Cc1cccc(-c2nn3c(c2-c2ccnc4ccc(C(N)=O)cc24)CCC3)n1 [galunisertib]
tumor bioluminescence (BLI), first experiment (NK cells intratumorally every 7 days for 11 weeks, galunisertib oral 5 times a week, cilengitide i.p. three times a week): tumor bioluminescence rapidly increased
NK-mediated GBM killing / efficacy in PDX model of GBM (summary statements) (mouse, in vivo): enhances NK-mediated GBM killing in vivo

Source: US20220378739A1, “NATURAL KILLER CELL IMMUNOTHERAPY FOR THE TREATMENT OF GLIOBLASTOMA AND OTHER CANCERS” (BOARD OF REGENTS, THE UNIVERSITY OF TEXAS SYSTEM, priority 2019, published 2022)
